Laboratory results reported in PMC4770715, “LIM kinase inhibitors disrupt mitotic microtubule organization and impair tumor cell proliferation” (Oncotarget, 2015).

Tests used:
Experiment in all cases: biochemical
Set-up in all cases: KINOMEscan active-site competition binding, percent of control (100 = no competition)
Settings in all cases: competition binding, percent control
SNRK = SNRK (Homo sapiens, UniProt Q9NRH2)
CAMK2A = CAMK2A (Homo sapiens, UniProt Q9UQM7)
BMPR2 = BMPR2 (Homo sapiens, UniProt Q13873)
MAP4K3 = MAP4K3 (Homo sapiens, UniProt Q8IVH8)
PIK3CA = PIK3CA (Homo sapiens, UniProt P42336)
YANK3 = target: T1, YANK3 (Homo sapiens, UniProt Q86UX6)
T1 construct: gene STK32C

CSNK1G3 = CSNK1G3 (Homo sapiens, UniProt Q9Y6M4)
CAMK4 = CAMK4 (Homo sapiens, UniProt Q16566)
PIK3CA(H1047Y) = PIK3CA(H1047Y) (Homo sapiens, UniProt P42336, H1047Y)
PKAC-beta = target: T2, PKAC-beta (Homo sapiens, UniProt P22694)
T2 construct: gene PRKACB

HCK = HCK (Homo sapiens, UniProt P08631)
CLK2 = CLK2 (Homo sapiens, UniProt P49760)
PCTK3 = target: T3, PCTK3 (Homo sapiens, UniProt Q07002)
T3 construct: gene CDK18

NDR2 = target: T4, NDR2 (Homo sapiens, UniProt Q9Y2H1)
T4 construct: gene STK38L

MAP3K15 = MAP3K15 (Homo sapiens, UniProt Q6ZN16)
KIT(V559D,V654A) = KIT(V559D,V654A) (Homo sapiens, UniProt P10721, V559D/V654A)
HUNK = HUNK (Homo sapiens, UniProt P57058)
KIT = KIT (Homo sapiens, UniProt P10721)
CSNK1A1L = CSNK1A1L (Homo sapiens, UniProt Q8N752)
PRP4 = target: T5, PRP4 (Homo sapiens, UniProt Q13523)
T5 construct: gene PRPF4B

AURKA = AURKA (Homo sapiens, UniProt O14965)
[1] = target: T6, RPS6KA5(Kin.Dom.2-C-terminal) (Homo sapiens, UniProt O75582)
T6 construct: Kin.Dom.2-C-terminal

MAP4K5 = MAP4K5 (Homo sapiens, UniProt Q9Y4K4)

Sequence of CAMK4 (Q16566 whole entry): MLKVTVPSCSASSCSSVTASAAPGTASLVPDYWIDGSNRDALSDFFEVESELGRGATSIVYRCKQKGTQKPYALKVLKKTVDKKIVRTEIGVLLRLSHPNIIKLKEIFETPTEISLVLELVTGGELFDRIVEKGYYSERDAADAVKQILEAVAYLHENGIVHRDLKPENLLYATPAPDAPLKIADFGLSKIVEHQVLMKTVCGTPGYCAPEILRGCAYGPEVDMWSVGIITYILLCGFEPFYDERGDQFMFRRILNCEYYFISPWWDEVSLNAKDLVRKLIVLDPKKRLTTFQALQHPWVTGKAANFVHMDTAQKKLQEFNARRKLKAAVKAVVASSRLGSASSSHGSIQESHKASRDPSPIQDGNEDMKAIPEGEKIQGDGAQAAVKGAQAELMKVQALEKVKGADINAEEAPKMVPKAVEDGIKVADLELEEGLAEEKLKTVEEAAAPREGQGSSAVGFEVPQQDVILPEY
T5 sequence (Q13523 whole entry): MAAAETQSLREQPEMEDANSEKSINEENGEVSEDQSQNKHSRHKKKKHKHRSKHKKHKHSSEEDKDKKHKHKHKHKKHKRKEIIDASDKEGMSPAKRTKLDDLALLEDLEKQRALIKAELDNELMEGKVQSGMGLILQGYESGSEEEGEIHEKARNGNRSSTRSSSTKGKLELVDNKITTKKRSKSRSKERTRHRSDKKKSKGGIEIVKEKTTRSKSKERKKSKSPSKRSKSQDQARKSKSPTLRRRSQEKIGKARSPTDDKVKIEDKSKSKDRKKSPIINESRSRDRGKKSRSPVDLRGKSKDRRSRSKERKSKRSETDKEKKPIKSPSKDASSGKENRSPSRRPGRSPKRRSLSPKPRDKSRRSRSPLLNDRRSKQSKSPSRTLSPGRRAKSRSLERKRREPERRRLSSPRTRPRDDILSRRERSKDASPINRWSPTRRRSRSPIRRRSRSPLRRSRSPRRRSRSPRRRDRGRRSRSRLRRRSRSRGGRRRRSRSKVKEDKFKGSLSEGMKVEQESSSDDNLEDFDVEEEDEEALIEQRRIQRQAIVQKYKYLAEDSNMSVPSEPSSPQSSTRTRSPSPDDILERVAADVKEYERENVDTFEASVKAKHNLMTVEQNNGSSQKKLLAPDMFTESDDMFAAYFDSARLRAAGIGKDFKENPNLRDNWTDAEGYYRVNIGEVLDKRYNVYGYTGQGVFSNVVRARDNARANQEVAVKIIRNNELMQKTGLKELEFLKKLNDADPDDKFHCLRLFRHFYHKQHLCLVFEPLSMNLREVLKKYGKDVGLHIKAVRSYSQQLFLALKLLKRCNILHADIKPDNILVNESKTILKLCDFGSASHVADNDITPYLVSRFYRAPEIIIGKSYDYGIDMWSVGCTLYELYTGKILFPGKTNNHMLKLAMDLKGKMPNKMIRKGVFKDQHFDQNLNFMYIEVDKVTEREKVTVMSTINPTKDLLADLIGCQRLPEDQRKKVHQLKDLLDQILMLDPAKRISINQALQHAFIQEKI
Sequence of PIK3CA(H1047Y) (P42336 whole entry H1047Y): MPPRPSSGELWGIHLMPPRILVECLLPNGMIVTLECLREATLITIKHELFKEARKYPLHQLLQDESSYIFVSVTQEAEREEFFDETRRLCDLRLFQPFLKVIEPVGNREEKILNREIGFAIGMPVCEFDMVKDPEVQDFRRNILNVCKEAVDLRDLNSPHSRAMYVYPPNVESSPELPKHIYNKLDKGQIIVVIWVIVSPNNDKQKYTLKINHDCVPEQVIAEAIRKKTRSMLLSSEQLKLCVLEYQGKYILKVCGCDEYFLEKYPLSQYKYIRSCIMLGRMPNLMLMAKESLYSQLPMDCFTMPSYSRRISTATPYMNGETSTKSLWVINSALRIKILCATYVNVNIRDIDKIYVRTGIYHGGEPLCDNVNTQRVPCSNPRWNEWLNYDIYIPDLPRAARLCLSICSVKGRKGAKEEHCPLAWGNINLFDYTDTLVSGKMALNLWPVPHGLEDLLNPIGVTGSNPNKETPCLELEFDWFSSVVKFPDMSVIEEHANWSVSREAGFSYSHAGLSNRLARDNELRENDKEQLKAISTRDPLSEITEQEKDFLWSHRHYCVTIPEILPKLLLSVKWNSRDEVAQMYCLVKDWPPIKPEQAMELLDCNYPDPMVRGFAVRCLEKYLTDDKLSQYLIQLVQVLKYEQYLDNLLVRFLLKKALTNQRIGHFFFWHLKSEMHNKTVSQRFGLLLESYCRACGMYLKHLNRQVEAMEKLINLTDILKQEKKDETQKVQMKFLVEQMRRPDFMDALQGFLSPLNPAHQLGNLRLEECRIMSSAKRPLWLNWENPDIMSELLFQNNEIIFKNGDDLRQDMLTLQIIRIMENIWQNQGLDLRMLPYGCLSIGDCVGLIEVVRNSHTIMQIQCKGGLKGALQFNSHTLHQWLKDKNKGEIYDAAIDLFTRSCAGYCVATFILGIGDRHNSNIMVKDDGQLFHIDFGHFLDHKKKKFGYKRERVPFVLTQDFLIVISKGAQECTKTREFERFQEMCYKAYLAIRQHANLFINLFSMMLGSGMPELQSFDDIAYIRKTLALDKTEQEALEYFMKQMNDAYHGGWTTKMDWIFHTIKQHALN
Sequence of HCK (P08631 whole entry): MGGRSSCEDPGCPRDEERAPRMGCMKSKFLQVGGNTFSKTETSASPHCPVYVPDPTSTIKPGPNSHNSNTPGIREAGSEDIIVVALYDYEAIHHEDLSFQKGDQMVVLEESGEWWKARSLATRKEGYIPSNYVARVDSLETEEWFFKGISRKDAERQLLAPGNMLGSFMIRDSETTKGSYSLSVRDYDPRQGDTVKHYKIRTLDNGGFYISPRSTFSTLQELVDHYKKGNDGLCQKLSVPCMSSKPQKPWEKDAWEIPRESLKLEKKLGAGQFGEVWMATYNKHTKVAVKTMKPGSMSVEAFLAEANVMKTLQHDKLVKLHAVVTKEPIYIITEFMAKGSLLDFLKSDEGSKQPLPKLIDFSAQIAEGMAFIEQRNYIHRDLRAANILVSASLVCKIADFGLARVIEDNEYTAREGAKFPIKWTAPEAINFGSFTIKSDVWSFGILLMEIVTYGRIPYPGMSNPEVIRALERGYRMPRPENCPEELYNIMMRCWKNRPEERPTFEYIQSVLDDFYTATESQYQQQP
T4 sequence (Q9Y2H1 whole entry): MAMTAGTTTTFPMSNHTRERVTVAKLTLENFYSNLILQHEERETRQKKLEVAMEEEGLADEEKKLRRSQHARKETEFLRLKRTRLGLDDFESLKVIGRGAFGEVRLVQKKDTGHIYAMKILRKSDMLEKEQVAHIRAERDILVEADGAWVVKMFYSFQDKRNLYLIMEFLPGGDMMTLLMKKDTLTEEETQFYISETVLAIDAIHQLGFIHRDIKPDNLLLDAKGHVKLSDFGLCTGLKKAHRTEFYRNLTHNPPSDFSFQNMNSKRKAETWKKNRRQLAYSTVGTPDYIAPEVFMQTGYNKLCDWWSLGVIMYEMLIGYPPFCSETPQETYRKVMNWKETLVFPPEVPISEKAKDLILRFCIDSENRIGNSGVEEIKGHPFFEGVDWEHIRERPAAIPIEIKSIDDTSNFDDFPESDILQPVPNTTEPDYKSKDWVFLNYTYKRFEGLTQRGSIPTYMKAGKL
Sequence of SNRK (Q9NRH2 whole entry): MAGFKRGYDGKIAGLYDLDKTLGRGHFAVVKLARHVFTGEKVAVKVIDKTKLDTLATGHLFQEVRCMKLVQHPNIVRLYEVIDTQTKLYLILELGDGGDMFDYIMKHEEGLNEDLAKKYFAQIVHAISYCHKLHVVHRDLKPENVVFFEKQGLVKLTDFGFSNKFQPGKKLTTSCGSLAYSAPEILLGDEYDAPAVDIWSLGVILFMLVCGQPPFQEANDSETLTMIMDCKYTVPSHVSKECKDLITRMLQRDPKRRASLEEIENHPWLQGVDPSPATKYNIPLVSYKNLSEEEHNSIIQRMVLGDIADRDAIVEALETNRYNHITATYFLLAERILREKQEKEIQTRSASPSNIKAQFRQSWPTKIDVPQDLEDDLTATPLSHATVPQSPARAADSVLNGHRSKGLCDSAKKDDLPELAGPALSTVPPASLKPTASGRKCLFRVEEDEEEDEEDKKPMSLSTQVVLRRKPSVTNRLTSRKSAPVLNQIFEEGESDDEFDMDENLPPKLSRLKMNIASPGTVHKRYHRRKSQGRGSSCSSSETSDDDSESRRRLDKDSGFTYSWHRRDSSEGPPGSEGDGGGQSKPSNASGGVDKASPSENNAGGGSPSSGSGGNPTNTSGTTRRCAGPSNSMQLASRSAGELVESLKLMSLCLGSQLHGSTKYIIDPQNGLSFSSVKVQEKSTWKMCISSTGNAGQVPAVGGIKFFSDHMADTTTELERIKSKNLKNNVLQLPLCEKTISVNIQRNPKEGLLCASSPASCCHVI
Sequence of CSNK1G3 (Q9Y6M4 whole entry): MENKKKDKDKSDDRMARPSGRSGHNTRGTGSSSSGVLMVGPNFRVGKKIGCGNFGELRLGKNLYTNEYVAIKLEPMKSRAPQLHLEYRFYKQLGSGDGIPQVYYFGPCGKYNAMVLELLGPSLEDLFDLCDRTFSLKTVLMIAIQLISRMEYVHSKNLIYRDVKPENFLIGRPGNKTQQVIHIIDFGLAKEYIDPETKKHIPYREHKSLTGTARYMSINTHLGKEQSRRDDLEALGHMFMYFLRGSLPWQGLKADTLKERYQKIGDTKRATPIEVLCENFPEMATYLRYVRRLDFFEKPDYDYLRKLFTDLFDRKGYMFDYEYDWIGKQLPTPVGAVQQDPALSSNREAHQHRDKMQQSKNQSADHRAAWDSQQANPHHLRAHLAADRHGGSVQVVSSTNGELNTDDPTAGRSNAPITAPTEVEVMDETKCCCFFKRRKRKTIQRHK
Sequence of PIK3CA (P42336 whole entry): as the sequence (P42336 whole entry H1047Y) above, with Y1047H counted along it

Row | SMILES | remaining binding at 10 µM (SNRK) [%] | remaining binding at 10 µM (CAMK2A) [%] | remaining binding at 10 µM (BMPR2) [%] | remaining binding at 10 µM (MAP4K3) [%] | remaining binding at 10 µM (PIK3CA) [%] | remaining binding at 10 µM (YANK3) [%] | remaining binding at 10 µM (CSNK1G3) [%] | remaining binding at 10 µM (CAMK4) [%] | remaining binding at 10 µM (PIK3CA(H1047Y)) [%] | remaining binding at 10 µM (PKAC-beta) [%] | remaining binding at 10 µM (HCK) [%] | remaining binding at 10 µM (CLK2) [%] | remaining binding at 10 µM (PCTK3) [%] | remaining binding at 10 µM (NDR2) [%] | remaining binding at 10 µM (MAP3K15) [%] | remaining binding at 10 µM (KIT(V559D,V654A)) [%] | remaining binding at 10 µM (HUNK) [%] | remaining binding at 10 µM (KIT) [%] | remaining binding at 10 µM (CSNK1A1L) [%] | remaining binding at 10 µM (PRP4) [%] | further results
1 | COc1ccc(-c2cnccc2-c2cnc(NC(=O)C(C)C)s2)c(C(F)(F)F)c1 [CRT0105446, N-{5-[3-(4-Methoxy-2-trifluoromethyl-phenyl)-pyridin-4-yl]-hiazol-2-yl}-isobutyramide] | 81 | 82 | 100 | 58 | 100 | 100 | 67 | 98 | 94 | 100 | 100 | 78 | 7.7 | 82 | 93 | 100 | 89 | 55 | 96 | 100 | remaining binding at 10 µM (AURKA): 100%; remaining binding at 10 µM [1]: 86%; remaining binding at 10 µM (MAP4K5): 100%
2 | Cc1ccc(-c2cnccc2-c2cnc(Nc3ccc(O)cc3)s2)c(Cl)c1 [CRT0105950, 4-{5-[3-(2-Chloro-4-methyl-phenyl)-pyridin-4-yl]-thiazol-2-ylamino}-phenol] | 100 | 33 | 8.9 | 18 | 100 | 100 | 43 | 90 | 93 | 44 | 94 | 0.45 | 68 | 80 | 82 | 11 | 49 | 3.2 | 74 | 100 | remaining binding at 10 µM (AURKA): 18%; remaining binding at 10 µM [1]: 89%; remaining binding at 10 µM (MAP4K5): 32%
